According to ChEMBL document CHEMBL1909046, “DrugMatrix in vitro pharmacology data”:
Where a SMILES comes first, the peptide text is derived from it. Bridges are numbered along the chain shown (N, C = ends). [ ]: non-standard residue; d: D form. The star is where a group is joined. Ileψ(thiazoline)Cys = CC[C@H](C)[C@H](N)C1=N[C@H](C(=O)*)CS1; dOrn = NCCC[C@@H](N)C(=O)O

Columns and labels:
[1] = biological target: Tyrosine-protein kinase Fyn (Homo sapiens, UniProt P06241); assay: biochemical; assay type: cell-based, Insect cells; conditions: insect cells;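 also: enzymatic inhibition of Fyn kinase activity measured with Poly(Glu:Tyr) as the phosphorylation substrate; in other assays of this panel Not Active means under 50% inhibition at 10 µM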
Tyrosine-protein kinase Fyn, sequence (P06241 whole entry): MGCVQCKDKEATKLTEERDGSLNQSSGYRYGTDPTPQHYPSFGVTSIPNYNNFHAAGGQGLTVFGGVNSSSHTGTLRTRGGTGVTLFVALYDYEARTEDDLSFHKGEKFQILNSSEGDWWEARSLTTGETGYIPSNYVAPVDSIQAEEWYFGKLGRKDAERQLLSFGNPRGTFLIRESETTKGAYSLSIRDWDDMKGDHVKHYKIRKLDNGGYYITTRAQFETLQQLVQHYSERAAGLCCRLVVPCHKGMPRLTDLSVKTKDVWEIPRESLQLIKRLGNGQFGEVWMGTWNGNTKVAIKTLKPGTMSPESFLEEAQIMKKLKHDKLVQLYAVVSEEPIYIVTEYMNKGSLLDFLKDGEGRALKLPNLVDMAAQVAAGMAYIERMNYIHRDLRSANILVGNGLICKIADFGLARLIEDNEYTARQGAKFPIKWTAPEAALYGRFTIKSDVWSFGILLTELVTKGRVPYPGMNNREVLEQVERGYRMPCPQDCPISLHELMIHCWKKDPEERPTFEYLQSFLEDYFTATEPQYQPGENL

[2] = DRUGMATRIX: Interleukin IL-1 radioligand binding (ligand: [125I] interleukin 1beta); assay type: cell membranes, Membrane; conditions: nih3t3; Not Active = under 50% inhibition at 10 µM
[3] = biological target: T1, C-X-C chemokine receptor type 2 (Homo sapiens, UniProt P25025); assay type: cell membranes, Membrane; conditions: cho-k1; also: in other assays of this panel Not Active means under 50% inhibition at 10 µM
T1 sequence (P25025 whole entry): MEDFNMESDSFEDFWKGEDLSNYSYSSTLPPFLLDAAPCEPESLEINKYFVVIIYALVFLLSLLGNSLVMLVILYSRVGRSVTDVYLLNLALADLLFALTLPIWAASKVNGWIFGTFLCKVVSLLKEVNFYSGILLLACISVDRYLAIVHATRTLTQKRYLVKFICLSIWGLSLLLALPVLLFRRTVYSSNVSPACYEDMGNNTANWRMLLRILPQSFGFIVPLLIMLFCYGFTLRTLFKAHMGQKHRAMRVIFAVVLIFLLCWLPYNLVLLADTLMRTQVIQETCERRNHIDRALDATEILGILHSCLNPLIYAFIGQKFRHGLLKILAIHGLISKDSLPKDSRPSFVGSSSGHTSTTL

[4] = biological target: T2, C-X-C chemokine receptor type 1 (Homo sapiens, UniProt P25024); also: in other assays of this panel Not Active means under 50% inhibition at 10 µM
T2 sequence (P25024 whole entry): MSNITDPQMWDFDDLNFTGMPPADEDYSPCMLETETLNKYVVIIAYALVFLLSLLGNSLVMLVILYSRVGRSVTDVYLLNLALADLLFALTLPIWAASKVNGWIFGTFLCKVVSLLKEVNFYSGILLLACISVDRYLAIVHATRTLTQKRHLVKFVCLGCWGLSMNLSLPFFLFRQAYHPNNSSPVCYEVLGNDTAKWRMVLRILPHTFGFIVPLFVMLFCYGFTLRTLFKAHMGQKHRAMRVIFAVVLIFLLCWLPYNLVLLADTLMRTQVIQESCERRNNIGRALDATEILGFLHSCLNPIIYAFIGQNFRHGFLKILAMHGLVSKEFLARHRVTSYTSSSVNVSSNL

[5] = biological target: Delta-type opioid receptor (Homo sapiens, UniProt P41143); assay type: cell membranes, HEK293, Membrane; conditions: hek293; also: in other assays of this panel Not Active means under 50% inhibition at 10 µM
[6] = DRUGMATRIX: Leukotriene, BLT (LTB4) radioligand binding (ligand: [3H]LTB4); assay type: cell membranes, Membrane; conditions: u-937; Not Active = under 50% inhibition at 10 µM
[7] = biological target: Cannabinoid receptor 1 (Homo sapiens, UniProt P21554); assay type: cell membranes, Membrane; conditions: chem-1; also: in other assays of this panel Not Active means under 50% inhibition at 10 µM
Cannabinoid receptor 1, sequence (P21554 whole entry): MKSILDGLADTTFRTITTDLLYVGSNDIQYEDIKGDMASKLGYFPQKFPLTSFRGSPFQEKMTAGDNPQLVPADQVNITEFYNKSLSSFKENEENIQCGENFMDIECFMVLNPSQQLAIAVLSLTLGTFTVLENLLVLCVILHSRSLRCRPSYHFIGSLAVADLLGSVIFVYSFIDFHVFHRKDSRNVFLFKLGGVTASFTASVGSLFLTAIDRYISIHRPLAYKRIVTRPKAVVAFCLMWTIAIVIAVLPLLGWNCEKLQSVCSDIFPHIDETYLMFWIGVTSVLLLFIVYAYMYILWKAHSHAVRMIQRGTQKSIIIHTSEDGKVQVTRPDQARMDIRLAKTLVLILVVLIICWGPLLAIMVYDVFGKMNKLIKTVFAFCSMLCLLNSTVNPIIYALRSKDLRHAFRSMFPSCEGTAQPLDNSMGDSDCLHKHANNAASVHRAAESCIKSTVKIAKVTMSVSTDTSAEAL

[8] = biological target: Vascular endothelial growth factor receptor 1 (Homo sapiens, UniProt P17948); assay type: cell-based; conditions: huvec; also: in other assays of this panel Not Active means under 50% inhibition at 10 µM
Vascular endothelial growth factor receptor 1, sequence (P17948 whole entry): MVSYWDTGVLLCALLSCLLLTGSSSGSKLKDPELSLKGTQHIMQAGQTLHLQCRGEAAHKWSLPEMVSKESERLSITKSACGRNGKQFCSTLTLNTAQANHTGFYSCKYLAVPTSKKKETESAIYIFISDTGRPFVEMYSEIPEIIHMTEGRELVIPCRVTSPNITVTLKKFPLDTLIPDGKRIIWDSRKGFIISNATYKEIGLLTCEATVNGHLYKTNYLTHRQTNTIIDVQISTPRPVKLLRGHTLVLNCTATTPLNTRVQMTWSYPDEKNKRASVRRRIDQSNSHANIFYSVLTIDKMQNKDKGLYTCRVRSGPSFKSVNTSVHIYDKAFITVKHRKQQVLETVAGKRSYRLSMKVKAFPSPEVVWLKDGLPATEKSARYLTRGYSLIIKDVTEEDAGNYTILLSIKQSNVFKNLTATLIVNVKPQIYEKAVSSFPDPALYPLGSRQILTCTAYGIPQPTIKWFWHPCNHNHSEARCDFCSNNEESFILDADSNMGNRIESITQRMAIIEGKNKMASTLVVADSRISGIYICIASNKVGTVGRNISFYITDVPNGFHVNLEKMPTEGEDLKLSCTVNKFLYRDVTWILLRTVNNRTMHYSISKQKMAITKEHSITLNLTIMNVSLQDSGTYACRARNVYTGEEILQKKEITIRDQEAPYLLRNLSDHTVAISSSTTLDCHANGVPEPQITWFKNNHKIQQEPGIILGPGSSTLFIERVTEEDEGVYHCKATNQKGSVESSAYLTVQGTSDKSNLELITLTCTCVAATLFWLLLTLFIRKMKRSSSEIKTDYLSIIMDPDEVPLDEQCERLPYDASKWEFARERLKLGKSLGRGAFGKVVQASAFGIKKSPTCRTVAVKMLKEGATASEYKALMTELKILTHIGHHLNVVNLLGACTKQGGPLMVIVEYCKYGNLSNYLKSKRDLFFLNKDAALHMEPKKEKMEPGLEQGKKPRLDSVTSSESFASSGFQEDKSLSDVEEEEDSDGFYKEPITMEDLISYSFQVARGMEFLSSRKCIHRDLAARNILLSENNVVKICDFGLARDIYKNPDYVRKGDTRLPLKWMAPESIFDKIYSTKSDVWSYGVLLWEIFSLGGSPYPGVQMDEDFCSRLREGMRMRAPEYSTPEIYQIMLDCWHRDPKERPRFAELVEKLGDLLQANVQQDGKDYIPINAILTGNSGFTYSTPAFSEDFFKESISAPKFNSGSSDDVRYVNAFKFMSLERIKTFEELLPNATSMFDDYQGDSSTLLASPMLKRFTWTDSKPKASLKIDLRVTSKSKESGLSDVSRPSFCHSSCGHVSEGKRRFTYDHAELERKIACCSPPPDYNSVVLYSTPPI

[9] = biological target: T3, Neutrophil elastase (Homo sapiens, UniProt P08246); assay type: tissue-based
T3 sequence (P08246 whole entry): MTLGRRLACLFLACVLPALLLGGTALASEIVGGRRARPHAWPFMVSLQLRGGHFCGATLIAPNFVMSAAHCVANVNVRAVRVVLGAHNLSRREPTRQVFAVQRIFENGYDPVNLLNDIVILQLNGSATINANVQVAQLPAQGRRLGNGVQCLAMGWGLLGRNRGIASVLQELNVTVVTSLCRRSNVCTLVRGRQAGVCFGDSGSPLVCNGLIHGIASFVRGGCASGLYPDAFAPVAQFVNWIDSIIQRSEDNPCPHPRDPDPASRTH

[10] = biological target: Tyrosine-protein kinase Lck (Homo sapiens, UniProt P06239); assay: DRUGMATRIX: Protein Tyrosine Kinase, LCK enzyme inhibition (substrate: Poly(Glu:Tyr)); assay type: cell-based, Insect cells; conditions: insect cells; Not Active = under 50% inhibition at 10 µM
Tyrosine-protein kinase Lck, sequence (P06239 whole entry): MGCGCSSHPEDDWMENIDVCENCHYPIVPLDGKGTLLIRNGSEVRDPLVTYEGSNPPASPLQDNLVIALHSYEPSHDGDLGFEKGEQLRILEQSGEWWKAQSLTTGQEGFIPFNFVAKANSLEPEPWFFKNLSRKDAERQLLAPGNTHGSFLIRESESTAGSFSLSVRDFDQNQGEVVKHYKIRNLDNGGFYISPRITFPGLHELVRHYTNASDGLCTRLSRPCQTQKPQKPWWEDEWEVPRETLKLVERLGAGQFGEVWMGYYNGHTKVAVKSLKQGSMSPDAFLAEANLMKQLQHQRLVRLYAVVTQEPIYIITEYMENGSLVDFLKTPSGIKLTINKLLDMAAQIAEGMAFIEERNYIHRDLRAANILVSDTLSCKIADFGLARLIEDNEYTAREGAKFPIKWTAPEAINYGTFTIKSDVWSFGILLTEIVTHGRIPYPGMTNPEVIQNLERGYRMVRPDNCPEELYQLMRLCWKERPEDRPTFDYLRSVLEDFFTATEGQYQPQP

[11] = biological target: Insulin receptor (Rattus norvegicus, UniProt P15127); assay type: cell membranes, Wistar, Liver, Membrane; also: in other assays of this panel Not Active means under 50% inhibition at 10 µM
Insulin receptor, sequence (P15127 27-759 limits assumed): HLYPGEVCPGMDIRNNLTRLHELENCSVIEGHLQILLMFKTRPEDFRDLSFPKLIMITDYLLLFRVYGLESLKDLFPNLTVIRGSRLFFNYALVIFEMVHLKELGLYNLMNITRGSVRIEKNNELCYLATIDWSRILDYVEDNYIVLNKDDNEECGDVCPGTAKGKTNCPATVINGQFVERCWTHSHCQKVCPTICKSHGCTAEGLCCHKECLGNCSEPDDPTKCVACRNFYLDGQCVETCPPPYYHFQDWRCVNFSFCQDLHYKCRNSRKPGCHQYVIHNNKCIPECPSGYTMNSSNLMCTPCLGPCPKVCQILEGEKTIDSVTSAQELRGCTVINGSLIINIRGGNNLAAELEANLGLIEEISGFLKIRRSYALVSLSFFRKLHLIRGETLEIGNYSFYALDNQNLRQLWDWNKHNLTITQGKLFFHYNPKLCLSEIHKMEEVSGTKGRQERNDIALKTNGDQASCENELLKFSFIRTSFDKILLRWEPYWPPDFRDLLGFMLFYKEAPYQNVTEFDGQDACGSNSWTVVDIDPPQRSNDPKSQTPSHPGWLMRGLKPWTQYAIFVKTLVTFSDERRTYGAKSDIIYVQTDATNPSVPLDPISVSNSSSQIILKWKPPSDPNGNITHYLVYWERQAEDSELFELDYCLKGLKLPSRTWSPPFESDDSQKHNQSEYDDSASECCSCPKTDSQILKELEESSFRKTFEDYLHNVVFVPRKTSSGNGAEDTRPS
Insulin receptor, sequence (P15127 764-1383 limits assumed): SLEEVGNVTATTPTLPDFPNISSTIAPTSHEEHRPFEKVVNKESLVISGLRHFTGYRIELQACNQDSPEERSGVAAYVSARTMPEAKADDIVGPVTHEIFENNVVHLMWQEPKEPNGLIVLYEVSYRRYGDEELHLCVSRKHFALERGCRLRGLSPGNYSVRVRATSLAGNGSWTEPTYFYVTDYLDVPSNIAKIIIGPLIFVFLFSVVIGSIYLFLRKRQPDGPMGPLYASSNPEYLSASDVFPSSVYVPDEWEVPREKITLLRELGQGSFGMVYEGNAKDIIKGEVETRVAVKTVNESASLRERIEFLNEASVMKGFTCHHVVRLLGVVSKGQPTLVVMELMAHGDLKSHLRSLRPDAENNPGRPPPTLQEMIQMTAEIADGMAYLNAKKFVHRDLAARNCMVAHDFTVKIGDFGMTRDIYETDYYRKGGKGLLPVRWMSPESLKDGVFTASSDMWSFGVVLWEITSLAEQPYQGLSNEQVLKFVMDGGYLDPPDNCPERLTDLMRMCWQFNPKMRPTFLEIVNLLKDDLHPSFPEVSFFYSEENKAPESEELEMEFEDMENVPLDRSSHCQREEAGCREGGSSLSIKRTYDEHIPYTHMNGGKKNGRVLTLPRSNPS

[12] = DRUGMATRIX: Phorbol Ester radioligand binding (ligand: [3H] PDBu); assay type: cell membranes, Mus musculus, ICR, Brain, Membrane; conditions: Not Active = under 50% inhibition at 10 µM
[13] = DRUGMATRIX: Imidazoline I2, Central radioligand binding (ligand: [3H] Idazoxan); assay type: cell membranes, Rattus norvegicus, Wistar, Cerebral cortex, Membrane; conditions: Not Active = under 50% inhibition at 10 µM
[14] = biological target: Beta-1 adrenergic receptor (Homo sapiens, UniProt P08588); assay: DRUGMATRIX: Adrenergic beta1 radioligand binding (ligand: [125I] Cyanopindolol); assay type: cell membranes, CHO-K1, Membrane; conditions: cho-k1; Not Active = under 50% inhibition at 10 µM
[15] = DRUGMATRIX: Glutamate, NMDA, Phencyclidine radioligand binding (ligand: [3H] TCP); assay type: cell membranes, Rattus norvegicus, Wistar, Cerebral cortex, Membrane; conditions: Not Active = under 50% inhibition at 10 µM
[16] = biological target: Mitogen-activated protein kinase 14 (Homo sapiens, UniProt Q16539); set-up: species or system Escherichia coli
Mitogen-activated protein kinase 14, sequence (Q16539 whole entry): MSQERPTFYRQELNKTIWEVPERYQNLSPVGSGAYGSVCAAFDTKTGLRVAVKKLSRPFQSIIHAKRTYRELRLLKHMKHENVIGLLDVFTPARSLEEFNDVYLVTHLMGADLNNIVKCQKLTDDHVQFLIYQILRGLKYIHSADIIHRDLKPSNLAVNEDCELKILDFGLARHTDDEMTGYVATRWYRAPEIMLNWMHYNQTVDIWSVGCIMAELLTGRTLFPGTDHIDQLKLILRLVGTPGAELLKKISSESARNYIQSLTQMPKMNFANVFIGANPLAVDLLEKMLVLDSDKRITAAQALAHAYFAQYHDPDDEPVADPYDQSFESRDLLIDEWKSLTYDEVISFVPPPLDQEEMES

[17] = biological target: Sigma non-opioid intracellular receptor 1 (Homo sapiens, UniProt Q99720); assay: DRUGMATRIX: Sigma1 radioligand binding (ligand: [3H] Haloperidol); assay type: cell membranes, Jurkat, Membrane; conditions: Not Active = under 50% inhibition at 10 µM
Sigma non-opioid intracellular receptor 1, sequence (Q99720 whole entry): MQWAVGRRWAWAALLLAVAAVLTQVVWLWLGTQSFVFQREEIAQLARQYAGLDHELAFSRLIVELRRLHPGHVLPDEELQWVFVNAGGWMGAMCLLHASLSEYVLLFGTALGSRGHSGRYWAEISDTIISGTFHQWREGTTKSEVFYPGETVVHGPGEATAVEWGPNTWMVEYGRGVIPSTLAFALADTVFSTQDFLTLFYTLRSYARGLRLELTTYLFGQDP

[18] = biological target: T4, 5-hydroxytryptamine receptor 2C (Homo sapiens, UniProt P28335); assay: DRUGMATRIX: Serotonin (5-Hydroxytryptamine) 5-HT2C radioligand binding (ligand: [3H] Mesulergine); assay type: cell membranes, CHO-K1, Membrane; conditions: cho-k1; Not Active = under 50% inhibition at 10 µM
T4 sequence (P28335 whole entry): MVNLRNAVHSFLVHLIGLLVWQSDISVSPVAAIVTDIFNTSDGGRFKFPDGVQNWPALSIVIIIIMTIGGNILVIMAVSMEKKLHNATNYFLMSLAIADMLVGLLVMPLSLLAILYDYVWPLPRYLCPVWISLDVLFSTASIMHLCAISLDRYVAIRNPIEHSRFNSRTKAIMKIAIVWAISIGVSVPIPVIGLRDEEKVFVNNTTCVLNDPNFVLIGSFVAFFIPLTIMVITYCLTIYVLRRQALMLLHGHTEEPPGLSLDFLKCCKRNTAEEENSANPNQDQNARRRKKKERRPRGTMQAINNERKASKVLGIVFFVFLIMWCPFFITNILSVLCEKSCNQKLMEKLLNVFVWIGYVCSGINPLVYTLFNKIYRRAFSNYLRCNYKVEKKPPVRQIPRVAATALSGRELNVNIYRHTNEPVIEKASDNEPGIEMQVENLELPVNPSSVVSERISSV

Structure (SMILES) | IC50 [1] | IC50 [2] | Ki [2] | IC50 [3] | IC50 [4] | IC50 [5] | IC50 [6] | Ki [6] | IC50 [7] | IC50 [8] | IC50 [9] | IC50 [10] | IC50 [11] | IC50 [12] | Ki [12] | IC50 [13] | Ki [13] | IC50 [15] | Ki [15] | IC50 [16] | further results
CN(C)CCCC1(c2ccc(F)cc2)OCc2cc(C#N)ccc21 (stereo not given) [CITALOPRAM] | Not Active | Not Active | Not Active | Not Active | Not Active | Not Active | Not Active | Not Active | Not Active | Not Active | Not Active | Not Active | Not Active | Not Active | Not Active | Not Active | Not Active | Not Active | Not Active | Not Active | IC50 [14]: Not Active; IC50 ([17]; read-out: IC50): 398 nM; Ki ([17]; read-out: Ki): 167 nM
CC(C)NC[C@H](O)COc1cccc2[nH]ccc12 | Not Active | Not Active | Not Active | Not Active | Not Active | Not Active | Not Active | Not Active | Not Active | Not Active | Not Active | Not Active | Not Active | Not Active | Not Active | Not Active | Not Active | Not Active | Not Active | Not Active | IC50 [18]: Not Active; IC50 ([17]; jurkat): Not Active
CNCCC=C1c2ccccc2CCc2ccccc21 [NORTRIPTYLINE] | Not Active | Not Active | Not Active | Not Active | Not Active | Not Active | Not Active | Not Active | Not Active | Not Active | Not Active | Not Active | Not Active | Not Active | Not Active | – | – | Not Active | Not Active | Not Active | IC50 ([13]; read-out: IC50): 3860 nM; Ki ([13]; read-out: Ki): 2570 nM; IC50 [14]: Not Active; IC50 ([17]; jurkat): Not Active
N=C(N)NCCCCNC(=N)N.O=S(=O)(O)O [ARCAINE SULFATE] | Not Active | Not Active | Not Active | Not Active | Not Active | Not Active | Not Active | Not Active | Not Active | Not Active | Not Active | Not Active | Not Active | Not Active | Not Active | Not Active | Not Active | Not Active | Not Active | Not Active | IC50 [18]: Not Active; IC50 ([17]; jurkat): Not Active
COC(=O)[C@H](c1ccccc1Cl)N1CCc2sccc2C1 [CLOPIDOGREL] | Not Active | Not Active | Not Active | Not Active | Not Active | Not Active | Not Active | Not Active | Not Active | Not Active | Not Active | Not Active | Not Active | Not Active | Not Active | Not Active | Not Active | Not Active | Not Active | Not Active | IC50 [18]: Not Active; IC50 ([17]; jurkat): Not Active
O=c1cc(-c2ccccc2)oc2c1ccc1ccccc12 [ALPHA-NAPHTHOFLAVONE] | Not Active | Not Active | Not Active | Not Active | Not Active | Not Active | Not Active | Not Active | Not Active | Not Active | Not Active | Not Active | Not Active | Not Active | Not Active | Not Active | Not Active | Not Active | Not Active | Not Active | IC50 [14]: Not Active; IC50 [18]: Not Active
CC[C@H](C)[C@H](N)C1=N[C@H](C(=O)N[C@@H](CC(C)C)C(=O)N[C@H](CCC(=O)O)C(=O)N[C@H](C(=O)N[C@H]2CCCCNC(=O)[C@H](CC(N)=O)NC(=O)[C@@H](CC(=O)O)NC(=O)[C@H](Cc3cnc[nH]3)NC(=O)[C@@H](Cc3ccccc3)NC(=O)[C@H]([C@@H](C)CC)NC(=O)[C@@H](CCCN)NC2=O)[C@@H](C)CC)CS1 [BACITRACIN] ({Ileψ(thiazoline)Cys}-L[dE]IK[dOrn]I[dF]H[dD]N; lactam 4-C) | Not Active | Not Active | Not Active | Not Active | Not Active | Not Active | Not Active | Not Active | Not Active | Not Active | Not Active | – | Not Active | Not Active | Not Active | Not Active | Not Active | Not Active | Not Active | Not Active | IC50 [14]: Not Active; IC50 [18]: Not Active; IC50 ([17]; jurkat): Not Active
